Common to all, as to assay type: functional, cell-based
In assay [1] the target is Metabotropic glutamate receptor 4 (Rattus norvegicus, UniProt P31423). As to the kind of experiment: Agonist activity at rat mGluR4 expressed in HEK293 cells assessed as induction of inositol phosphate production by HTRF assay.
For assay [2], the target named is Metabotropic glutamate receptor 5 (Rattus norvegicus) (UniProt P31424). As to the kind of experiment: Agonist activity at rat mGluR5 expressed in HEK293 cells assessed as induction of inositol phosphate production at 100 uM by HTRF assay.
Assay [3] concerns the target Metabotropic glutamate receptor 1 (Rattus norvegicus) (UniProt P23385). As to the kind of experiment: Agonist activity at rat mGluR1 expressed in HEK293 cells assessed as induction of inositol phosphate production at 100 uM by HTRF assay.
Assay [4] deals with Metabotropic glutamate receptor 6 (Rattus norvegicus, UniProt P35349). As to the kind of experiment: Agonist activity at rat mGluR6 expressed in HEK293 cells assessed as induction of inositol phosphate production by HTRF assay.
Chain of Metabotropic glutamate receptor 6 (P35349 whole entry): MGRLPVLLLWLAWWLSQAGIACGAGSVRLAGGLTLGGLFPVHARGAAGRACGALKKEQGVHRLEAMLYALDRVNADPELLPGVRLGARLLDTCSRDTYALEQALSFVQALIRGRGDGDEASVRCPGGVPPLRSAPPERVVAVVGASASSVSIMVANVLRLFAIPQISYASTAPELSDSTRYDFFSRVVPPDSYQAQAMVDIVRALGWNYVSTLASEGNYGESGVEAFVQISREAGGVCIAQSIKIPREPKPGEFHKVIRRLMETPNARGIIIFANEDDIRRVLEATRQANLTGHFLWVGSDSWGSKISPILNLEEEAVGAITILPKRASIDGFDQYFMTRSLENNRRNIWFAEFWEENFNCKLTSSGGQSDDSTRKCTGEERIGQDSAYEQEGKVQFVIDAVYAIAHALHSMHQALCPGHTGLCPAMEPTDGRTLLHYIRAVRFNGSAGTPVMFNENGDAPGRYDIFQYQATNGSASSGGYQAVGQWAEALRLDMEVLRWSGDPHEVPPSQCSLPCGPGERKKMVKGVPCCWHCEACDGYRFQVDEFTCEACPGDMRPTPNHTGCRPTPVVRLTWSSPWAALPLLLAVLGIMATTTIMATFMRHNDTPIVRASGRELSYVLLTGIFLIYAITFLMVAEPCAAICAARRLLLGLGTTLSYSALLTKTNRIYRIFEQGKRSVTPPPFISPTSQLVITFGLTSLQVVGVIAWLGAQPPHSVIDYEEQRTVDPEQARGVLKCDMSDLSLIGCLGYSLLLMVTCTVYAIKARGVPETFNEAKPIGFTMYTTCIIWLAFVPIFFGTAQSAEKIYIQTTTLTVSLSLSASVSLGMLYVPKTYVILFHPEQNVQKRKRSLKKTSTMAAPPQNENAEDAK
Assay [5] has as its target Metabotropic glutamate receptor 8 (Rattus norvegicus, UniProt P70579). Nature of the assay: Agonist activity at rat mGluR8 expressed in HEK293 cells assessed as induction of inositol phosphate production by HTRF assay.
Assay [6] addresses Metabotropic glutamate receptor 7 (Rattus norvegicus, UniProt P35400). As to the kind of experiment: Agonist activity at rat mGluR7 expressed in HEK293 cells assessed as induction of inositol phosphate production by HTRF assay.
In assay [7] the target is Metabotropic glutamate receptor 2 (Rattus norvegicus, UniProt P31421). As to the kind of experiment: Agonist activity at rat mGluR2 expressed in HEK293 cells assessed as induction of inositol phosphate production by HTRF assay.
Chain of Metabotropic glutamate receptor 2 (P31421 whole entry): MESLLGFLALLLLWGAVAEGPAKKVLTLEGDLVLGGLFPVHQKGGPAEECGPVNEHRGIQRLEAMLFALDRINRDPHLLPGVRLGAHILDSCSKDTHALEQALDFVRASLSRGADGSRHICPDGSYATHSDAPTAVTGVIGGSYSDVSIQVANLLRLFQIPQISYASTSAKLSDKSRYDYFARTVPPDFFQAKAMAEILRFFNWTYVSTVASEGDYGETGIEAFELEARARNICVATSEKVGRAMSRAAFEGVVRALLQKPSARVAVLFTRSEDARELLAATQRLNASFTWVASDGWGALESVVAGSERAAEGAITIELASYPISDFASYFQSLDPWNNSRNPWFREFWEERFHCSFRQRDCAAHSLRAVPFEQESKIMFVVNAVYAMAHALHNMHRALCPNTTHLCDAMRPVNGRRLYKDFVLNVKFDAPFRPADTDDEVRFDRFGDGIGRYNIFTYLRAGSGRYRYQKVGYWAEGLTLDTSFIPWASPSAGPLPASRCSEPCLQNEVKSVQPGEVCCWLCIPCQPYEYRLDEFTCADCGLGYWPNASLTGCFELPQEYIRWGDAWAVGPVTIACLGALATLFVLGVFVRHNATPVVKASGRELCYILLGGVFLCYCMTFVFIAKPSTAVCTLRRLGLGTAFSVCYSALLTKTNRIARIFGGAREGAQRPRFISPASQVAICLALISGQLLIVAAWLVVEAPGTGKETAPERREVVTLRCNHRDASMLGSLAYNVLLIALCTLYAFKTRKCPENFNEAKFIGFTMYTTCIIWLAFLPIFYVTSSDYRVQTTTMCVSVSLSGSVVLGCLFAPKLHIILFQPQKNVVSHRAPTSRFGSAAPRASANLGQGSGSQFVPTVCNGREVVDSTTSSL

The structures appear in SMILES notation. The source made the active and inactive calls. The calls are words filed in the database; no cut-off is given here.

Chain of Metabotropic glutamate receptor 7 (P35400 whole entry): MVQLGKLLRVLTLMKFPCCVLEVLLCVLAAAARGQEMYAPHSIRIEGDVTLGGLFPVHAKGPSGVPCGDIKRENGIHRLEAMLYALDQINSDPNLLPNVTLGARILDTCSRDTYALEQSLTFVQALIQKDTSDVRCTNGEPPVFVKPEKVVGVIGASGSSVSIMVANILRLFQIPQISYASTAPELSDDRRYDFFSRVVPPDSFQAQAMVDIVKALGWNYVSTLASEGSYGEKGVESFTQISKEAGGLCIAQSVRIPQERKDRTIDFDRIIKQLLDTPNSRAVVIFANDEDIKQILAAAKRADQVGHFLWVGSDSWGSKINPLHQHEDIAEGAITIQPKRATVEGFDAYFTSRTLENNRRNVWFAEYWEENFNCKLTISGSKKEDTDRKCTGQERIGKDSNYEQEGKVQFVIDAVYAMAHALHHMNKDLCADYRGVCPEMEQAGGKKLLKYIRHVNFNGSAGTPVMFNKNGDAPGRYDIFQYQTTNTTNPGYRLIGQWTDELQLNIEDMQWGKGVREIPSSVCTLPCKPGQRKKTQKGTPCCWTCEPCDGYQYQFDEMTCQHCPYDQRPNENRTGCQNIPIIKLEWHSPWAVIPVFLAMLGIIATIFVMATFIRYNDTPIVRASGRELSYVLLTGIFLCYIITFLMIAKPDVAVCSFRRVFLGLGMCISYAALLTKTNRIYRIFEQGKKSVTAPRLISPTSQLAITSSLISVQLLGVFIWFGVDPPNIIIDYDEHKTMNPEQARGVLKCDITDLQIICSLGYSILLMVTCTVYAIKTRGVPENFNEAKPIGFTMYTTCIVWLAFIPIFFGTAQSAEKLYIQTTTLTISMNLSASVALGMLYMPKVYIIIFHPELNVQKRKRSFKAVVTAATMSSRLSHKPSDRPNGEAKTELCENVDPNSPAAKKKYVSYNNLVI
Chain of Metabotropic glutamate receptor 4 (P31423 whole entry): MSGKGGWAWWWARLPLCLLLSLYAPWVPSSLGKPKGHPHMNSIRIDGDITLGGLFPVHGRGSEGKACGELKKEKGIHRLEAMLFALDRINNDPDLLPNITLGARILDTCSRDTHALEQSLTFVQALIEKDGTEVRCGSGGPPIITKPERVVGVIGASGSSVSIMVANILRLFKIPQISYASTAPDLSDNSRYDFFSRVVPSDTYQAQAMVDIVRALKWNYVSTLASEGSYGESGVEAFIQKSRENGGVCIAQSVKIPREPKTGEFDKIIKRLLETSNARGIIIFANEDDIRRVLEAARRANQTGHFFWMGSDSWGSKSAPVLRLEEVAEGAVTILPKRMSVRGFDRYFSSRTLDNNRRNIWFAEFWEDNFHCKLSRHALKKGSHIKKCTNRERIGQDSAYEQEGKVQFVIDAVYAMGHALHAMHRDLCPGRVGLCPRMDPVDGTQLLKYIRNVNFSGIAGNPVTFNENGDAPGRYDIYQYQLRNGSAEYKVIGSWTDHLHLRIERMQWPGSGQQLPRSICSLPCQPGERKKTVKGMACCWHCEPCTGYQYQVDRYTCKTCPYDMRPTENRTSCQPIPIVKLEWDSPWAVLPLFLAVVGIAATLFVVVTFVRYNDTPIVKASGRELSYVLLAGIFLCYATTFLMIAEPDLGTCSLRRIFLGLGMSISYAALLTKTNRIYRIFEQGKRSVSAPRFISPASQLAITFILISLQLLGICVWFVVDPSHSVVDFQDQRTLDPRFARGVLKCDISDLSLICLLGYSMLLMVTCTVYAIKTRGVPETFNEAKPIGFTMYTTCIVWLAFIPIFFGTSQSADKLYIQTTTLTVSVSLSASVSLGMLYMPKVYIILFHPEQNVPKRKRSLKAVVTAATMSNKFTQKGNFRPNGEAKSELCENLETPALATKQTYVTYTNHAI
Chain of Metabotropic glutamate receptor 8 (P70579 whole entry): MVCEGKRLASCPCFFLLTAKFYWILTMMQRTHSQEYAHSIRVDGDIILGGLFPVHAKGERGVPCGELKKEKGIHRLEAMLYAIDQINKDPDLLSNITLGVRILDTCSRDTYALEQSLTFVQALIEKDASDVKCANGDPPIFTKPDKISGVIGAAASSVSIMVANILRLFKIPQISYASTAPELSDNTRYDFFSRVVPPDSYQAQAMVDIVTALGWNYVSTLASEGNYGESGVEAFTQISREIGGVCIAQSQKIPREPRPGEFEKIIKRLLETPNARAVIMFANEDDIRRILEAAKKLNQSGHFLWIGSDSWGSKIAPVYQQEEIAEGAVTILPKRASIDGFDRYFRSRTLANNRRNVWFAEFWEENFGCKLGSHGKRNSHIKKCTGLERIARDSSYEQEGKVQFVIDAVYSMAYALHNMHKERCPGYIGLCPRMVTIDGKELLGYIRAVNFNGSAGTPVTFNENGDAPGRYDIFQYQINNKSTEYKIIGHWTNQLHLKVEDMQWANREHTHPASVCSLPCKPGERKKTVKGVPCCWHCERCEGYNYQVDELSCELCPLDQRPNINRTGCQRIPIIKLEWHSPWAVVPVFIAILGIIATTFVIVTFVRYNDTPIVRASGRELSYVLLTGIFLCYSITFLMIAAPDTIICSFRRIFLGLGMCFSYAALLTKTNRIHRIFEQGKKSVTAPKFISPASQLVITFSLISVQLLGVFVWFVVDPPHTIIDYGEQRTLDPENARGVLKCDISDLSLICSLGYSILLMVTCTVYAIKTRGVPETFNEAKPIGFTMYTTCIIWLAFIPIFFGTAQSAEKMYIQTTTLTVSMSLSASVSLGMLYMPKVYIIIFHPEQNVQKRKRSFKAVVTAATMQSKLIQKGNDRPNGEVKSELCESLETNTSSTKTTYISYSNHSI

`NC1(C(=O)O)CC1(F)CP(=O)(O)O` (single isomer, unassigned; form 1): the EC50 in assay [1] was found to be 0.12 µM.

For the molecule `NC1(C(=O)O)CC1(F)CP(=O)(O)O` (racemic; form 1) [listing 1 of 2 here], the outcome in assay [2] and in assay [3] was inactive.

As for `N[C@@]1(C(=O)O)C[C@H]1CP(=O)(O)O`, the EC50 in assay [1] turned out to be 0.03 µM.

With `NC1(C(=O)O)CC1(F)CP(=O)(O)O` (stereo in doubt; form 2), the EC50 in assay [1] is 135 µM.

With `NC1(C(=O)O)CC1(F)CP(=O)(O)O` (racemic; form 2), in assay [1], the EC50 worked out at 0.1 µM.

For `N[C@@H](CCP(=O)(O)O)C(=O)O`, the EC50 was 3.45 µM in assay [4], 0.11 µM in assay [5], 0.03 µM in assay [1] and 426 µM in assay [6].

With `NC1(C(=O)O)CC1(F)CP(=O)(O)O` (stereo in doubt; form 1), in assay [1], the EC50 was 11.4 µM.

Turning to `N[C@@H](CCC(=O)O)C(=O)O` [GLUTAMIC ACID], the EC50 in assay [4] is 82.2 µM; in assay [5], 21.5 µM; in assay [1], 12.6 µM; in assay [6], > 100 µM.

For the molecule `NC1(C(=O)O)CC1(F)CP(=O)(O)O` (single isomer, unassigned; form 2), the EC50 in assay [1] came out at 0.1 µM.

For the molecule `NC1(C(=O)O)CC1(F)CP(=O)(O)O` (racemic; form 1) [listing 2 of 2 here], the EC50 was 6.01 µM in assay [4]; 1.25 µM in assay [5]; > 100 µM in assay [7]; 0.3 µM in assay [1]; > 100 µM in assay [6].
